Experimental data published in PubChem BioAssay (NCI).
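Cultured in 96-well plates, cells were exposed to test compound for 48 hours across five concentrations. GI50 marks 50% less growth. TGI: total growth inhibition.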

What was measured:
Assay in all cases: NCI anticancer screen, dose series, 48 h
A549 NSCLC = test system: A549 NSCLC
CCRF-CEM leukemia = test system: CCRF-CEM leukemia
K-562 leukemia = test system: K-562 leukemia
LOX IMVI melanoma = test system: LOX IMVI melanoma
MDA-MB-435 = test system: MDA-MB-435
OVCAR-3 ovarian = test system: OVCAR-3 ovarian
OVCAR-5 ovarian = test system: OVCAR-5 ovarian
RXF 393 renal = test system: RXF 393 renal
SR leukemia = test system: SR leukemia
COLO 205 colon = test system: COLO 205 colon
SK-MEL-5 melanoma = test system: SK-MEL-5 melanoma
SK-OV-3 ovarian = test system: SK-OV-3 ovarian
DMS 114 small cell lung = test system: DMS 114 small cell lung
DMS 273 small cell lung = test system: DMS 273 small cell lung
SNB-78 CNS = test system: SNB-78 CNS

SMILES	TGI (A549 NSCLC) [µM]	TGI (CCRF-CEM leukemia) [µM]	TGI (K-562 leukemia) [µM]	TGI (LOX IMVI melanoma) [µM]	TGI (MDA-MB-435) [µM]	TGI (OVCAR-3 ovarian) [µM]	TGI (OVCAR-5 ovarian) [µM]	TGI (RXF 393 renal) [µM]	TGI (SR leukemia) [µM]	TGI (COLO 205 colon) [µM]	TGI (SK-MEL-5 melanoma) [µM]	TGI (SK-OV-3 ovarian) [µM]	TGI (DMS 114 small cell lung) [µM]	TGI (DMS 273 small cell lung) [µM]	TGI (SNB-78 CNS) [µM]	GI50 (A549 NSCLC) [µM]	GI50 (K-562 leukemia) [µM]	GI50 (LOX IMVI melanoma) [µM]	GI50 (MDA-MB-435) [µM]	GI50 (SK-MEL-5 melanoma) [µM]
CC(C)(C)C(=O)C(C(c1ccccc1)N1CCOCC1)N1CCOCC1 (stereo unspecified)	> 100	> 100	> 100	> 100	> 100	> 100	> 100	> 100	> 100	–	–	–	–	–	–	–	–	–	–	–
CC(=O)Oc1ccccc1C(=O)O	> 100	> 100	> 100	> 100	> 100	> 100	> 100	> 100	> 100	> 100	> 100	> 100	–	–	–	–	–	–	–	–
Cn1c(-c2ccc(/C=N\N3CCN(/N=C/c4ccc(-c5c[n+]6ccsc6n5C)cc4)CC3)cc2)c[n+]2ccsc12	> 100	> 100	34.7	> 100	> 100	> 100	> 100	> 100	> 100	36.3	84.6	> 100	–	–	–	–	–	–	–	–
Cc1ccc(-c2csc(=Nc3c(C)n(C)n(-c4ccccc4)c3=O)n2CCO)cc1	> 100	> 100	> 100	–	> 100	> 100	> 100	> 100	> 100	–	–	> 100	–	–	–	–	–	–	–	–
CCO[C@]12C[C@H](OC)[C@@]3(O)CC(C1[C@H]3O)C13C4C2[C@H](OC)C1[C@](COC)(CN4CC)[C@H](O)C[C@@H]3OC (stereo partly specified)	> 100	> 100	> 100	> 100	–	–	> 100	> 100	> 100	> 100	> 100	> 100	> 100	> 100	> 100	–	–	–	–	–
COc1cc2c3c(n(CCCNCCCNCCCn4c5c(c6ccccc6c4=O)C(=O)c4ccccc4-5)c(=O)c2cc1OC)-c1cc2c(cc1C3=O)OCO2	2.3	–	> 100	< 0.0361	1.68	–	–	–	–	–	0.634	–	–	–	–	0.0201	0.0403	< 0.01	0.154	0.0298
Clc1c(Cl)c2c(Cl)c(Cl)c1C[P+](c1ccccc1)(c1ccccc1)CC[P+](c1ccccc1)(c1ccccc1)Cc1c(Cl)c(Cl)c(c(Cl)c1Cl)C[P+](c1ccccc1)(c1ccccc1)CC[P+](c1ccccc1)(c1ccccc1)C2	18.8	9.63	9.17	7.89	–	8.97	13.2	10.9	–	2.89	3.13	21.7	3.7	6.59	18.9	–	–	–	–	–
CC(C)[C@](O)(C(=O)OCC1CC[N+]2([O-])CC[C@@H](O)C12)[C@H](C)O (stereo partly specified)	> 375	> 375	> 375	> 203	–	> 375	> 375	> 375	–	> 375	> 375	> 375	> 375	> 375	> 375	–	–	–	–	–
CCCCN1C(=O)NC(Cc2ccccc2)C1=O (stereo unspecified)	> 100	–	–	> 100	–	–	> 100	> 100	> 100	–	–	–	> 100	> 100	> 100	–	–	–	–	–
CC#C[I+]c1ccccc1	> 100	18.7	33.3	28.2	–	33.9	77.8	36.9	36.5	26	48.5	99.1	26.3	27.8	54.5	–	–	–	–	–
OCCN(CCO)c1ccc2c(c1)Cc1ccccc1-2	> 100	> 100	> 100	> 100	> 100	45.9	> 100	–	> 100	35.7	> 100	> 100	–	–	–	–	–	–	–	–
CCCCCCCCCCCCCCCCOCC(COP(=O)([O-])OCC[N+](C)(C)C)OCCCCCCCCCCCCCCCC (stereo unspecified)	–	> 100	> 100	> 100	–	> 100	> 100	> 100	–	> 100	> 100	> 100	> 100	> 100	> 100	–	–	–	–	–
